Results reported in US8936728B2, “Chemicals for oil spill cleanup” (priority 2010, dated 2015).

Tested on: fresh water minnows
Assay: Toxicity tests using fresh water minnows
Assay type: in vivo
Details: test water containing 25 ppm; control water without the phosphonium bromide
Procedure: Toxicity tests were conducted using fresh water minnows. The fresh water minnows were placed in test water containing 25 ppm dodecylbenzyldimethyl phosphonium bromide and in a control water sample without the phosphonium bromide.

CCCCCCCCCCCC[P+](C)(C)Cc1ccccc1.[Br-] [dodecylbenzyldimethyl phosphonium bromide]
number of fresh water minnows dying over a given time in the test water versus control: about the same as in the control
